{"source": "paper PMC5218480", "about": "(PLoS ONE, 2017)", "system": "MV-4-11 cells", "assay": "Gene expression microarray analysis (Affymetrix PrimeView) and GSEA", "assay_type": "cell-based, human", "set-up": "RFU PODN (11730768_x_at) / Fold change /veh PODN (11730768_x_at) / RFU LINC00158 (11744669_a_at) / Fold change /veh LINC00158 (11744669_a_at) / RFU DUSP10 (11751237_a_at) / Fold change /veh DUSP10 (11751237_a_at) / RFU ID3 (11757404_x_at) / Fold change /veh ID3 (11757404_x_at) / RFU PLEKHG5 (11737974_s_at) / Fold change /veh PLEKHG5 (11737974_s_at) / RFU LRRC4B (11730491_at) / Fold change /veh LRRC4B (11730491_at) / RFU GIMAP4 (11747438_a_at) / Fold change /veh GIMAP4 (11747438_a_at) / RFU KRT8 (11758183_x_at) / Fold change /veh KRT8 (11758183_x_at) / RFU CNN1 (11734310_a_at) / Fold change /veh CNN1 (11734310_a_at) / RFU VPS37D (11726825_at) / Fold change /veh VPS37D (11726825_at) / RFU C10orf10 (11716522_x_at) / Fold change /veh C10orf10 (11716522_x_at) / RFU KIR2DL2 /// KIR2DL4 /// KIR2DL5A /// KIR2DL5B /// KIR2DS1 /// KIR2DS2 /// KIR2DS3 /// KIR2DS4 /// KIR3DL3 /// KIR3DL3 /// KIR3DS1 (11738374_at) / Fold change /veh KIR2DL2 /// KIR2DL4 /// KIR2DL5A /// KIR2DL5B /// KIR2DS1 /// KIR2DS2 /// KIR2DS3 /// KIR2DS4 /// KIR3DL3 /// KIR3DL3 /// KIR3DS1 (11738374_at) / RFU C1QL1 (11718748_at) / Fold change /veh C1QL1 (11718748_at) / RFU TMPRSS4 (11747572_a_at) / Fold change /veh TMPRSS4 (11747572_a_at) / RFU HAMP (11756126_x_at) / Fold change /veh HAMP (11756126_x_at) / RFU RNFT2 (11725882_a_at) / Fold change /veh RNFT2 (11725882_a_at) / RFU NR4A2 (11747474_a_at) / Fold change /veh NR4A2 (11747474_a_at) / RFU ABCC12 (11746883_a_at) / Fold change /veh ABCC12 (11746883_a_at) / RFU TMEM136 (11760407_x_at) / Fold change /veh TMEM136 (11760407_x_at) / RFU CLDN22 /// WWC2 (11732394_at) / Fold change /veh CLDN22 /// WWC2 (11732394_at) / RFU HLA-DPB1 (11760878_x_at) / Fold change /veh HLA-DPB1 (11760878_x_at) / RFU SPINT1 (11716480_a_at) / Fold change /veh SPINT1 (11716480_a_at) / RFU GAP43 (11754022_s_at) / Fold change /veh GAP43 (11754022_s_at) / RFU A4GNT (11735810_at) / Fold change /veh A4GNT (11735810_at) / RFU PRB3 (11715151_x_at) / Fold change /veh PRB3 (11715151_x_at) / RFU TUBB4B (11761932_at) / Fold change /veh TUBB4B (11761932_at) / RFU CAPN14 (11732068_a_at) / Fold change /veh CAPN14 (11732068_a_at) / RFU TMCC2 (11721928_a_at) / Fold change /veh TMCC2 (11721928_a_at) / RFU IRGQ (11745062_a_at) / Fold change /veh IRGQ (11745062_a_at) / RFU FAM174B (11720279_a_at) / Fold change /veh FAM174B (11720279_a_at) / RFU TMPRSS4 (11748680_a_at) / Fold change /veh TMPRSS4 (11748680_a_at) / RFU FAM212B (11763350_a_at) / Fold change /veh FAM212B (11763350_a_at) / RFU PLEKHG5 (11743358_a_at) / Fold change /veh PLEKHG5 (11743358_a_at) / RFU ZSCAN30 (11745921_a_at) / Fold change /veh ZSCAN30 (11745921_a_at) / RFU CMKLR1 (11741424_a_at) / Fold change /veh CMKLR1 (11741424_a_at) / RFU LOC101060620 /// MAPK8IP1 (11723275_at) / Fold change /veh LOC101060620 /// MAPK8IP1 (11723275_at) / RFU SPTSSB (11747773_x_at) / Fold change /veh SPTSSB (11747773_x_at) / RFU PRSS12 (11739890_at) / Fold change /veh PRSS12 (11739890_at) / RFU BIN1 (11741810_x_at) / Fold change /veh BIN1 (11741810_x_at) / RFU WNT11 (11732464_a_at) / Fold change /veh WNT11 (11732464_a_at) / RFU C10orf10 (11716521_a_at) / Fold change /veh C10orf10 (11716521_a_at) / RFU C5orf56 (11738089_at) / Fold change /veh C5orf56 (11738089_at) / RFU CYB561 (11721691_x_at) / Fold change /veh CYB561 (11721691_x_at) / RFU ANKRD19P (11752326_a_at) / Fold change /veh ANKRD19P (11752326_a_at) / RFU OR2T12 /// OR2T33 /// OR2T8 (11738714_s_at) / Fold change /veh OR2T12 /// OR2T33 /// OR2T8 (11738714_s_at) / RFU VCAN (11748164_a_at) / Fold change /veh VCAN (11748164_a_at) / RFU JSRP1 (11732532_at) / Fold change /veh JSRP1 (11732532_at) / RFU KRTAP10-11 (11738290_x_at) / Fold change /veh KRTAP10-11 (11738290_x_at) / RFU MYO3A (11730013_a_at) / Fold change /veh MYO3A (11730013_a_at) / RFU EBF3 (11725865_a_at) / Fold change /veh EBF3 (11725865_a_at) / RFU CAMK2N1 (11719241_x_at) / Fold change /veh CAMK2N1 (11719241_x_at) / RFU C5orf56 (11738088_a_at) / Fold change /veh C5orf56 (11738088_a_at) / RFU OLFML3 (11715873_a_at) / Fold change /veh OLFML3 (11715873_a_at) / RFU LOC100653217 /// NTM (11731650_a_at) / Fold change /veh LOC100653217 /// NTM (11731650_a_at) / RFU MAPK11 (11762145_a_at) / Fold change /veh MAPK11 (11762145_a_at) / RFU FIZ1 (11724087_x_at) / Fold change /veh FIZ1 (11724087_x_at) / RFU OASL (11726364_x_at) / Fold change /veh OASL (11726364_x_at) / RFU SOX15 (11748057_x_at) / Fold change /veh SOX15 (11748057_x_at) / RFU CD79A (11719716_a_at) / Fold change /veh CD79A (11719716_a_at) / RFU HIST1H1D (11736915_at) / Fold change /veh HIST1H1D (11736915_at) / RFU CASKIN2 (11723855_a_at) / Fold change /veh CASKIN2 (11723855_a_at) / RFU LOC730098 (11760151_x_at) / Fold change /veh LOC730098 (11760151_x_at) / RFU OR4N2 (11742367_at) / Fold change /veh OR4N2 (11742367_at) / RFU PRRT2 (11749266_a_at) / Fold change /veh PRRT2 (11749266_a_at) / RFU SNX32 (11753110_a_at) / Fold change /veh SNX32 (11753110_a_at) / RFU CDHR5 (11726645_a_at) / Fold change /veh CDHR5 (11726645_a_at) / RFU RCAN1 (11760418_a_at) / Fold change /veh RCAN1 (11760418_a_at) / RFU FAM167A (11723789_a_at) / Fold change /veh FAM167A (11723789_a_at) / RFU FAM26E (11764081_at) / Fold change /veh FAM26E (11764081_at) / RFU ISYNA1 (11749810_s_at) / Fold change /veh ISYNA1 (11749810_s_at) / RFU ACY1 (11761880_at) / Fold change /veh ACY1 (11761880_at) / RFU 11764098_at / Fold change /veh 11764098_at / RFU SAMD14 (11745864_x_at) / Fold change /veh SAMD14 (11745864_x_at) / RFU NPB (11741838_a_at) / Fold change /veh NPB (11741838_a_at) / RFU TMPRSS6 (11731388_a_at) / Fold change /veh TMPRSS6 (11731388_a_at) / RFU KRTAP10-2 (11738614_at) / Fold change /veh KRTAP10-2 (11738614_at) / RFU ARHGAP8 /// PRR5-ARHGAP8 (11727945_x_at) / Fold change /veh ARHGAP8 /// PRR5-ARHGAP8 (11727945_x_at) / RFU KRTAP5-7 /// NADSYN1 (11734609_at) / Fold change /veh KRTAP5-7 /// NADSYN1 (11734609_at) / RFU RASL12 (11751679_a_at) / Fold change /veh RASL12 (11751679_a_at) / RFU CDKN2B (11736163_a_at) / Fold change /veh CDKN2B (11736163_a_at) / RFU PRF1 (11729649_at) / Fold change /veh PRF1 (11729649_at) / RFU, ZNF638 /// ZNF638-IT1 / Fold change vs veh, ZNF638 /// ZNF638-IT1 / RFU, PANK3 / Fold change vs veh, PANK3 / RFU, SH3YL1 / Fold change vs veh, SH3YL1 / RFU, ZEB2 / Fold change vs veh, ZEB2 / RFU, NRIP1 / Fold change vs veh, NRIP1 / RFU, PTTG1IP / Fold change vs veh, PTTG1IP / RFU, CAPN2 / Fold change vs veh, CAPN2 / RFU, MED14 / Fold change vs veh, MED14 / RFU, SNORA58 / Fold change vs veh, SNORA58 / RFU, C1orf63 / Fold change vs veh, C1orf63 / RFU, LRRFIP1 / Fold change vs veh, LRRFIP1 / RFU, NDUFAF7 / Fold change vs veh, NDUFAF7 / RFU, SLC12A2 / Fold change vs veh, SLC12A2 / RFU, IBTK / Fold change vs veh, IBTK / RFU, ESF1 / Fold change vs veh, ESF1 / Fold change vs veh, TMEM50B / RFU, TAOK1 / Fold change vs veh, TAOK1 / RFU, ACBD3 / Fold change vs veh, ACBD3 / RFU, TMA16 / Fold change vs veh, TMA16 / RFU, RWDD3 / Fold change vs veh, RWDD3 / RFU, BCAT1 / Fold change vs veh, BCAT1 / RFU, EDEM3 / Fold change vs veh, EDEM3 / RFU, TMEM33 / Fold change vs veh, TMEM33 / RFU, WDR75 / Fold change vs veh, WDR75 / RFU, AHCTF1 / Fold change vs veh, AHCTF1 / RFU, TFRC / Fold change vs veh, TFRC / RFU, ZDHHC17 / Fold change vs veh, ZDHHC17 / RFU, NOM1 / Fold change vs veh, NOM1 / RFU, ARL8B / Fold change vs veh, ARL8B / RFU, ZBTB11 / Fold change vs veh, ZBTB11 / RFU, TAMM41 / Fold change vs veh, TAMM41 / RFU, KIAA1704 /// LOC100996395 / Fold change vs veh, KIAA1704 /// LOC100996395 / RFU, ING1 / Fold change vs veh, ING1 / RFU, TRMT61B / Fold change vs veh, TRMT61B / RFU, FUBP3 / Fold change vs veh, FUBP3 / RFU, TP53 / Fold change vs veh, TP53 / RFU, TNKS2 / Fold change vs veh, TNKS2 / RFU, ZFP14 / Fold change vs veh, ZFP14 / RFU, ACTR2 / Fold change vs veh, ACTR2 / RFU, PPP3R1 / Fold change vs veh, PPP3R1 / RFU, PIK3R1 / Fold change vs veh, PIK3R1 / RFU, HNRNPA1 / Fold change vs veh, HNRNPA1 / RFU, RNF170 / Fold change vs veh, RNF170 / RFU, ZNF28 / Fold change vs veh, ZNF28 / RFU, RNGTT / Fold change vs veh, RNGTT / RFU, OGT / Fold change vs veh, OGT / RFU, BRD1 / Fold change vs veh, BRD1 / RFU, MARS / Fold change vs veh, MARS / RFU, ZNF655 / Fold change vs veh, ZNF655 / RFU, FAHD1 / Fold change vs veh, FAHD1 / RFU, BDP1 / Fold change vs veh, BDP1 / RFU, LRRCC1 / Fold change vs veh, LRRCC1 / RFU, ARID1A / Fold change vs veh, ARID1A / RFU, ZNF146 / Fold change vs veh, ZNF146 / RFU, ZNF330 / Fold change vs veh, ZNF330 / RFU, GPN3 / Fold change vs veh, GPN3 / RFU, C9orf123 / Fold change vs veh, C9orf123 / RFU, N4BP2L2 / Fold change vs veh, N4BP2L2 / RFU, ARFIP1 / Fold change vs veh, ARFIP1 / RFU, FAM179B / Fold change vs veh, FAM179B / RFU, BCL10 / Fold change vs veh, BCL10 / RFU, UHRF1BP1L / Fold change vs veh, UHRF1BP1L / RFU, BET1 / Fold change vs veh, BET1 / RFU, CNOT2 / Fold change vs veh, CNOT2 / RFU, ZNF268 / Fold change vs veh, ZNF268 / Fold change vs veh, ZNF507 / RFU, DGCR2 / Fold change vs veh, DGCR2 / RFU, WDSUB1 / Fold change vs veh, WDSUB1 / Fold change vs veh, HSP90B1 /// MIR3652 / RFU, ADSS / Fold change vs veh, ADSS / RFU, GK / Fold change vs veh, GK / RFU, ZNF148 / Fold change vs veh, ZNF148 / RFU, TAF9 / Fold change vs veh, TAF9 / RFU, SLC1A5 / Fold change vs veh, SLC1A5 / RFU, SLMO2 / Fold change vs veh, SLMO2 / RFU, ABCC4 / Fold change vs veh, ABCC4 / RFU, LOC101060439 /// RAP1B / Fold change vs veh, LOC101060439 /// RAP1B / RFU, RFX7 / Fold change vs veh, RFX7 / RFU, GTPBP10 / Fold change vs veh, GTPBP10 / RFU, CNEP1R1 / Fold change vs veh, CNEP1R1 / RFU, BIVM-ERCC5 /// ERCC5 / Fold change vs veh, BIVM-ERCC5 /// ERCC5 / RFU, ILF3 / Fold change vs veh, ILF3 / RFU 11762660_at / Fold change /veh 11762660_at / RFU VCAN (11757783_s_at) / Fold change /veh VCAN (11757783_s_at) / RFU DDX43 (11728927_at) / Fold change /veh DDX43 (11728927_at) / RFU KRT8 (11758188_x_at) / Fold change /veh KRT8 (11758188_x_at) / RFU NKD1 (11759106_at) / Fold change /veh NKD1 (11759106_at) / RFU SRD5A1 (11742802_a_at) / Fold change /veh SRD5A1 (11742802_a_at) / RFU TPSAB1 /// TPSB2 (11721975_s_at) / Fold change /veh TPSAB1 /// TPSB2 (11721975_s_at) / RFU GSTM3 (11746129_a_at) / Fold change /veh GSTM3 (11746129_a_at) / RFU IL23R (11737362_x_at) / Fold change /veh IL23R (11737362_x_at) / RFU TMEM51 (11727254_a_at) / Fold change /veh TMEM51 (11727254_a_at) / RFU PIWIL2 (11732686_x_at) / Fold change /veh PIWIL2 (11732686_x_at) / RFU ORM1 (11744905_x_at) / Fold change /veh ORM1 (11744905_x_at) / RFU CCDC152 (11743942_at) / Fold change /veh CCDC152 (11743942_at) / RFU ECM1 (11717891_a_at) / Fold change /veh ECM1 (11717891_a_at) / RFU IL23R (11748794_a_at) / Fold change /veh IL23R (11748794_a_at) / RFU TNFAIP8L3 (11732012_x_at) / Fold change /veh TNFAIP8L3 (11732012_x_at) / RFU MBOAT4 (11741988_at) / Fold change /veh MBOAT4 (11741988_at) / RFU 11764193_at / Fold change /veh 11764193_at / RFU TMEM53 (11763286_at) / Fold change /veh TMEM53 (11763286_at) / RFU MAGEB2 (11727129_at) / Fold change /veh MAGEB2 (11727129_at) / RFU TMEM200A (11744735_a_at) / Fold change /veh TMEM200A (11744735_a_at) / RFU CCDC152 (11751479_a_at) / Fold change /veh CCDC152 (11751479_a_at) / RFU FAM211A (11726209_a_at) / Fold change /veh FAM211A (11726209_a_at) / RFU RGS16 (11746705_a_at) / Fold change /veh RGS16 (11746705_a_at) / RFU VCAN (11755009_s_at) / Fold change /veh VCAN (11755009_s_at) / RFU RHOB (11743442_s_at) / Fold change /veh RHOB (11743442_s_at) / RFU RGS16 (11720943_a_at) / Fold change /veh RGS16 (11720943_a_at) / RFU RGS16 (11720944_at) / Fold change /veh RGS16 (11720944_at) / RFU, VPS4B / Fold change vs veh, VPS4B / RFU, CREB1 / Fold change vs veh, CREB1 / RFU, DNAJC13 / Fold change vs veh, DNAJC13 / RFU, GNAQ / Fold change vs veh, GNAQ / RFU, CDK5R1 / Fold change vs veh, CDK5R1 / RFU, ZRANB3 / Fold change vs veh, ZRANB3 / RFU, CUL4A / Fold change vs veh, CUL4A / RFU, CCNY / Fold change vs veh, CCNY / RFU, UFL1 / Fold change vs veh, UFL1 / RFU, COG3 / Fold change vs veh, COG3 / RFU, DIAPH2 / Fold change vs veh, DIAPH2 / RFU, SKA2 / Fold change vs veh, SKA2 / RFU, AFF3 / Fold change vs veh, AFF3 / RFU, LMF1 / Fold change vs veh, LMF1 / RFU, IPO11 / Fold change vs veh, IPO11 / RFU, DFFB / Fold change vs veh, DFFB / RFU, FOXP1 / Fold change vs veh, FOXP1 / RFU, CARD8 / Fold change vs veh, CARD8 / RFU, STRN3 / Fold change vs veh, STRN3 / RFU, ADK / Fold change vs veh, ADK / RFU, RASSF2 / Fold change vs veh, RASSF2 / RFU, WIPF1 / Fold change vs veh, WIPF1 / RFU, LARP1B / Fold change vs veh, LARP1B / RFU, RASA1 / Fold change vs veh, RASA1 / RFU, RB1 / Fold change vs veh, RB1 / RFU, PPFIA1 / Fold change vs veh, PPFIA1 / RFU, MAT2A / Fold change vs veh, MAT2A / RFU, CCT5 / Fold change vs veh, CCT5 / RFU, WDR92 / Fold change vs veh, WDR92 / RFU, CUX1 / Fold change vs veh, CUX1 / RFU, TTC7A / Fold change vs veh, TTC7A / RFU, TMEM135 / Fold change vs veh, TMEM135 / RFU, DEPTOR / Fold change vs veh, DEPTOR / RFU, CPM / Fold change vs veh, CPM / RFU, DNAJB6 / Fold change vs veh, DNAJB6 / RFU, CACNA2D3 / Fold change vs veh, CACNA2D3 / RFU, DTX4 / Fold change vs veh, DTX4 / RFU, TFCP2 / Fold change vs veh, TFCP2 / RFU, GMCL1 /// GMCL1P1 / Fold change vs veh, GMCL1 /// GMCL1P1 / RFU, AEBP2 / Fold change vs veh, AEBP2 / RFU, SNHG1 /// SNORD22 /// SNORD25 /// SNORD26 /// SNORD27 /// SNORD28 /// SNORD29 /// SNORD31 / Fold change vs veh, SNHG1 /// SNORD22 /// SNORD25 /// SNORD26 /// SNORD27 /// SNORD28 /// SNORD29 /// SNORD31 / Fold change (Aza/veh), C12orf56 (ProbeSet 11735607_a_at) / Fold change (ACY-1035/veh), C12orf56 (ProbeSet 11735607_a_at) / Fold change (Aza/veh), FGFR1OP (ProbeSet 11751329_s_at) / Fold change (ACY-1035/veh), FGFR1OP (ProbeSet 11751329_s_at) / Fold change (Aza/veh), VPS36 (ProbeSet 11739960_a_at) / Fold change (ACY-1035/veh), VPS36 (ProbeSet 11739960_a_at) / RFU SYPL1 (11715823_x_at) / Fold change /veh SYPL1 (11715823_x_at) / RFU IGFBP7 (11715501_s_at) / Fold change /veh IGFBP7 (11715501_s_at) / RFU REEP3 (11722064_at) / Fold change /veh REEP3 (11722064_at) / RFU IGLL1 (11728026_x_at) / Fold change /veh IGLL1 (11728026_x_at): dose or concentration left out as unconfirmed", "conditions": "MV-4-11 cells, 48 hours"}
{"smiles": "Nc1ccc(-c2cccs2)cc1NC(=O)c1ccc2c(c1)cc(C1CC1)n2CCN1CCOCC1", "note": "[ACY-1035]", "values": [{"measurement": "Fold change /veh C1QL1 (11718748_at)", "value": 0.88}]}
